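Results reflect a 48-hour exposure of cells in 96-well plates to compound at five concentrations. At the GI50, growth is halved.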 Calls of active or inactive are those of the source. Rule as the data show it: active = GI50 up to about 1.1 µM and inactive = higher.
Legend:
Assay in all cases: inhibition of tumour cell growth, NCI panel, 48 h
SW-620 = system: SW-620
UACC-257 = system: UACC-257
A498 = system: A498
OVCAR-8 = system: OVCAR-8
OVCAR-4 = system: OVCAR-4
U-251 = system: U-251
HCT-15 = system: HCT-15
RXF 393 = system: RXF 393
HCT-116 = system: HCT-116
MDA-MB-435 = system: MDA-MB-435
Malme-3M = system: Malme-3M
HOP-62 = system: HOP-62
OVCAR-5 = system: OVCAR-5
MCF7 = system: MCF7
SF-539 = system: SF-539
HL-60 = system: HL-60
SK-MEL-2 = system: SK-MEL-2
786-0 = system: 786-0
SF-295 = system: SF-295
NCI-H226 = system: NCI-H226

Compound	GI50 (SW-620)	GI50 (UACC-257)	GI50 (A498)	GI50 (OVCAR-8)	GI50 (OVCAR-4)	GI50 (U-251)	GI50 (HCT-15) [µM]	GI50 (RXF 393)	GI50 (HCT-116)	GI50 (MDA-MB-435)	GI50 (Malme-3M)	GI50 (HOP-62)	GI50 (OVCAR-5)	GI50 (MCF7)	GI50 (SF-539)	GI50 (HL-60)	GI50 (SK-MEL-2)	GI50 (786-0)	GI50 (SF-295)	GI50 (NCI-H226)
Cn1c(-c2ccc(C=O)o2)ccc1-c1ccc(C=O)o1	35.4 µM (inactive)	51.4 µM (inactive)	> 100 µM (inactive)	30.4 µM (inactive)	53.1 µM (inactive)	40.7 µM (inactive)	34	> 100 µM (inactive)	18.4 µM (inactive)	38.6 µM (inactive)	31.7 µM (inactive)	45.3 µM (inactive)	> 100 µM (inactive)	28.8 µM (inactive)	34.5 µM (inactive)	19.8 µM (inactive)	> 100 µM (inactive)	61.1 µM (inactive)	58.7 µM (inactive)	76.4 µM (inactive)
COc1ccc2nc3ccccc3c(NCCCN(C)CCCl)c2c1	0.0497 µM (active)	0.644 µM (active)	0.458 µM (active)	0.142 µM (active)	0.324 µM (active)	0.287 µM (active)	0.444	0.284 µM (active)	0.0877 µM (active)	0.298 µM (active)	0.449 µM (active)	0.959 µM (active)	0.497 µM (active)	0.213 µM (active)	0.249 µM (active)	0.0614 µM (active)	0.557 µM (active)	0.104 µM (active)	0.371 µM (active)	0.226 µM (active)
COc1ccccc1N1CCN(CCCCNC(=O)c2ccc([N+](=O)[O-])o2)CC1	8.22 µM (inactive)	4.1 µM (inactive)	9.79 µM (inactive)	10.6 µM (inactive)	12.5 µM (inactive)	7.55 µM (inactive)	3.48	8.57 µM (inactive)	10.3 µM (inactive)	3.36 µM (inactive)	2.81 µM (inactive)	5.18 µM (inactive)	15.1 µM (inactive)	4.75 µM (inactive)	6.1 µM (inactive)	5.86 µM (inactive)	4.97 µM (inactive)	6.82 µM (inactive)	11.6 µM (inactive)	11.7 µM (inactive)

From ChEMBL document CHEMBL1201862, “PubChem BioAssay data set” (2004)
